Measurements published in article PMC10107917 (ACS Medicinal Chemistry Letters, 2023).
Bridge positions count the residues as written; N and C are the ends. Peptide text beside a SMILES is read from it.

Experiments:
[1] = system: furin-like enzyme activity in PANC-1 cell lysate; assay: Total furin-like enzyme activity in PANC-1 cell lysate; assay type: biochemical, human; details: peptide 100 µM
Protocol: The presence of furin in PANC-1 cell lysate was indicated by analyzing the release of fluorescent AMC product after incubation of furin substrate (Pyr-Arg-Thr-Lys-Arg-AMC) in the lysate, as described elsewhere.[31],[32] However, we are aware that this assay tends to reflect total furin-like enzyme activity rather than the activity of furin exclusively. This is the case because the liberation of AMC may be catalyzed not only by furin but also by an enzyme with a similar substrate preference, such as other PCs.[31] […] For comparison, the effect of a strong trypsin inhibitor, […] SFTI-1, on furin-like activity was insignificant under the same assay conditions. […] It is likely that SFTI-1 may provide protection for furin inhibitors from degradation by trypsin-like proteases. […]
µL for matriptases and 100 µL for furin. Measurements were carried out using excitation and emission wavelengths of 380 nm and 450 nm. The percentage inhibition of an enzyme was calculated relative to the control sample without an inhibitor. […]
Total furin-like enzyme inhibition/activity in PANC-1 cell lysates
Cell line and cell culture. The pancreatic cancer cell line, PANC-1, was obtained from the American Type Culture Collection, ATCC (Manassas, USA). PANC-1, a human pancreatic cancer cell line, was isolated from the pancreatic duct (ATCC, CRL-1469) and was cultured in Dulbecco’s Modified Eagle’s Medium (DMEM) by supplementing 10% fetal bovine serum (FBS) and 1% of penicillin/streptomycin (P/S). Cells were cultured at 37 °C with 5% CO2 in a humidified atmosphere. Cells were maintained in a 75 cm2 tissue culture flask. The medium was replaced every two days. The subcultivation ratio was […]
Preparation of lysates. PANC-1 cells were seeded in a Petri dishes. After 24 hours, […] were collected and centrifuged at 975 × g at 4 °C for 9 minutes. The supernatant was removed, and the cells were resuspended in a cold PBS buffer. The cells were centrifuged again at 900 × g at 4 °C for 5 minutes.
The supernatant was removed. Cells were suspended in Halt Protease Inhibitor Cocktail, EDTA-Free (100X) (Thermo Fisher Scientific). The samples were stored for 2 hours at -80°C. The samples were then defrosted and centrifuged at 16 000 × g at 4 °C for 20 minutes. The supernatant was stored at -80 […]
The inhibitory potency of selected peptides was examined in cell lysate alone or in presence of sunflower trypsin inhibitor (SFTI-1)6 sing furin fluorogenic substrate […] (Pepta Nova, Germany). Furin activity was determined by monitoring the AMC liberation over time with a plate reader. Measurements were performed using 96-well black plates (BRAND, Germany).
The general procedure was according to.7 In short: 20 µL of cell lysate (diluted 10 times with assay buffer pH 7.5 100 mM HEPES with 1 mM CaCl 2) was added to the well containing 60 µL of water, after 15 min in 37 °C 10 µL of peptide solution (final concentration in well 100 µM) was added. After 30 min incubation in 37 °C 10 µL substrate (100 µM final concentration) was added. […]
(§1) Next step was addition of appropriate peptide solution
(§2) (final concentration in well 100 µM) and 30 min incubation in 37 °C. After this time 10 µL substrate (100 µM final concentration) was added to the well. Percentage inhibition of the enzyme was calculated relative to the control sample without inhibitor.
(§3) Human serum from plasma (Sigma Aldrich, Germany) was prepared for the assay as referred previously.8 The experiments were carried out according to the procedure described before.2 The initial concentration of the peptide solutions was 1.54 mM. Each peptide solution was then diluted 10 times with human serum and incubated at 37 °C. Immediately after the start of incubation, 1, 2, 3, 5 and 24

[2] = Stability in human serum (HPLC); assay type: in vitro ADME; design: remaining at 5 h / remaining at 48 h: dose or concentration left out as unconfirmed; details: 37 °C; for remaining at 5 h: after 5 h of incubation, read-out: intact peptide detected by HPLC; for state of peptide in human serum: after 24 h; for remaining at 48 h: after 48 h of incubation, read-out: initial concentration of peptide remaining unchanged (HPLC)
Protocol: Next, we examined the stabilities of inhibitors 3, 5, 6, and FI in human serum (Figure 6). As expected, both monocyclic peptides (3 and FI) were degraded more rapidly than bicyclic inhibitors 5 and 6. After 5 h of incubation, about 25% of intact peptide 3 and 15% of FI were detected by HPLC. […] By contrast, the bicyclic peptides were clearly more resistant and stable. About 59% and 28% (based on HPLC data) of the initial concentrations of peptide 5 and peptide 6, respectively, remained unchanged even after 48 h of incubation. […] This possible protease-driven degradation was not confirmed in any additional experiments and must be treated with caution. It might be also speculated that the observed decrease in concentrations of both bicyclic peptides is related to binding to serum proteins during the long incubation process and subsequent sample preparation before HPLC analysis, as mentioned elsewhere.[36] Generally, our results are in accordance with the widely recognized observation that macrocyclization of peptides increases their stability. […]
as §1, §2
as §3, with “24 […]” for “24”
hours the samples of 200 μL were taken and mixed with 200 μL of acetonitrile to separate the human serum proteins. The formed precipitate was removed by centrifugation for 10 min at 13,000 rpm. The supernatant was stored in 3-4 °C for at least 1 hour before being analyzed by RP-HPLC (linear gradient 10-90% phase B, 40 min., Kinetex 5 μm XB-C18 100Å 150 x 4.6 mm) and MALDI-MS (Autoflex maX MALDI-TOF spectrometer, Bruker Daltonics, Germany). In order to determine peptide stability at each time point, the peptide peak area from recorded chromatograms was compared with the peptide peak area obtained directly after mixing peptide and plasma, and expressed as its percentage.
Molecular dynamics simulations […]
(Figure 5SA) bound to the furin active site were built based on the crystal structure of MT-SP1 in complex with SFTI-1 (PDB ID: 1P8J 2.0 Å) by aligning catalytic triad of both proteins in PyMOL, Molecular Graphics System, Version 2.0 Schrödinger, LLC software. Next, SFTI-1 peptide was replaced by one of the five designed ligands (Figure 5SB). Five resulting furin-inhibitor complexes were further used as starting structures for the molecular dynamic (MD) calculations.
The AMBER20 suite was used to perform MD simulations,9 ff14SBonlysc10 force field parameters were used. The initial complex structures were built in the xLeap module of AMBER20. The periodic boundary conditions with TIP3P11 octahedral water box and Na+ counterions were used. Two steps of energy minimization were performed: first 500 steepest descent and then 1000 conjugate gradient cycles with harmonic restraints of 10 kcal/mol/Å2 on the solute, next 3000 steepest descent and 3000 conjugate gradient cycles without restraints. Next, the systems were heated up to 300K for 10 ps in NVT ensemble followed by the simulations in NPT ensemble at the pressure of 105 Pa. Finally, five independent MD production runs of 100 ns for each furin-inhibitor complex were performed in NPT ensemble. The time integration step was 2 fs, the cutoff for non-bonded interactions was 8 Å, the SHAKE algorithm for the covalent bonds that included hydrogen atoms12 and the Particle Mesh Ewald procedure13 were used. The […]

SMILES	effect on furin-like activity in PANC-1 cell lysate [1]	reduction of initial enzyme activity in PANC-1 cell lysate ([1]; without SFTI-1)	remaining at 5 h [2]	state of peptide in human serum [2]	remaining at 48 h [2]
CC[C@H](C)[C@@H]1NC(=O)[C@@H]2CCCN2C(=O)[C@@H]2CCCN2C(=O)[C@H]([C@@H](C)CC)NC(=O)[C@H](CO)NC(=O)[C@H](CCCCN)NC(=O)[C@H](CCCCN)NC(=O)[C@@H](NC(=O)[C@H](CCCNC(=N)N)NC(=O)[C@@H](N)CCCCN)CSSC[C@@H](C(=O)N[C@@H](Cc2ccccc2)C(N)=O)NC1=O [FI, Lys-Arg-Cys(&)-Lys-Lys-Ser-Ile-Pro-Pro-Ile-Cys(&)-Phe-NH2, reference compound] (H-KRCKKSIPPICF-NH2; disulfide 3-11; N-terminus assumed)	reduced furin-like activity	about 50%	~15%	completely degraded	–
CC[C@H](C)[C@@H]1NC(=O)[C@@H]2CCCN2C(=O)[C@@H]2CCCN2C(=O)[C@H]([C@@H](C)CC)NC(=O)[C@H](CO)NC(=O)[C@H](CCCCN)NC(=O)[C@H](CCCCN)NC(=O)[C@@H](NC(=O)[C@H](CCCNC(=N)N)NC(=O)[C@H](CCCNC(=N)N)NC(=O)[C@@H](N)CCCNC(=N)N)CSSC[C@@H](C(=O)N[C@@H](Cc2ccccc2)C(N)=O)NC1=O [inhibitor 3, Arg-Arg-Arg-Cys(&)-Lys-Lys-Ser-Ile-Pro-Pro-Ile-Cys(&)-Phe-NH2] (H-RRRCKKSIPPICF-NH2; disulfide 4-12)	reduced furin-like activity	–	~25%	completely degraded	–
CC[C@H](C)[C@@H]1NC(=O)[C@@H]2CCCN2C(=O)[C@@H]2CCCN2C(=O)[C@H]([C@@H](C)CC)NC(=O)[C@H](CO)NC(=O)[C@H](CCCCN)NC(=O)[C@H](CCCCN)NC(=O)[C@@H]2CSSC[C@H](NC1=O)C(=O)N[C@@H](Cc1ccccc1)C(=O)N[C@@H](CCCCN)C(=O)N[C@@H](CCCNC(=N)N)C(=O)N[C@@H](CCCNC(=N)N)C(=O)N2 [inhibitor 5, &^1Lys-Arg-Arg-Cys(&^2)-Lys-Lys-Ser-Ile-Pro-Pro-Ile-Cys(&^2)-Phe&^1] (cyclo(KRRCKKSIPPICF); disulfide 4-12)	reduced furin-like activity	–	–	–	~59%
CC[C@H](C)[C@@H]1NC(=O)[C@@H]2CCCN2C(=O)[C@@H]2CCCN2C(=O)[C@H]([C@@H](C)CC)NC(=O)[C@H](CO)NC(=O)[C@H](CCCCN)NC(=O)[C@H](CCCCN)NC(=O)[C@@H]2CSSC[C@H](NC1=O)C(=O)N[C@@H](Cc1ccccc1)C(=O)N[C@@H](CCCNC(=N)N)C(=O)N[C@@H](CCCNC(=N)N)C(=O)N[C@@H](CCCNC(=N)N)C(=O)N2 [inhibitor 6, &^1Arg-Arg-Arg-Cys(&^2)-Lys-Lys-Ser-Ile-Pro-Pro-Ile-Cys(&^2)-Phe&^1] (cyclo(RRRCKKSIPPICF); disulfide 4-12)	reduced furin-like activity	–	–	–	~28%
